Assay results from patent US8697715B2, “Serine/threonine kinase inhibitors” (Array BioPharma Inc., priority 2012, dated 2014).

test system: PMA-stimulated P90RSK(Ser380) phosphorylation in HepG2 cells; assay: Cellular P90RSK(Ser380) Phosphorylation Assay; type: cell-based; settings: Homo sapiens, read-out: Biological Example 2 IC50 (nM), 1.5 hours compound incubation, PMA 100 ng/mL 30 minutes, normalized to GAPDH, single assay or mean of multiple assays
Method: Inhibition of PMA-stimulated P90RSK(Ser380) phosphorylation was determined by the following in vitro cellular mechanistic assay, which comprises incubating cells with a compound for 1.5 hours and quantifying fluorescent pP90RSK(Ser380) signal on fixed cells and normalizing to GAPDH signal.
HepG2 cells were obtained from ATCC and grown in DMEM supplemented with 10% fetal bovine serum. Cells were plated in 96-well plates at 35,000 cells/well and allowed to attach overnight at 37° C./5% CO2. Diluted compounds were then added at a final concentration of 0.5% DMSO. After 1.5 hours compound incubation, cells were stimulated with the addition of phorbol 12-myristate 13-acetate (“PMA”) at a final concentration of 100 ng/mL; the PMA stimulation was a 30-minute incubation at 37° C./5% CO2. After the 30-minute PMA stimulation, cells were washed with phosphate buffered saline (“PBS”) and fixed in 3.7% formaldehyde in PBS at room temperature for 15-20 minutes. This was followed by another wash in PBS and then permeabilization in 100% MeOH at room temperature for 10-15 minutes. Following the permeabilization incubation, cells were washed in PBS/0.05% Tween-20, followed by a block in Odyssey blocking buffer (LI-COR Biosciences) for at least 1 hour. […] Both secondary antibodies were used at a 1:1000 dilution. Cells were then washed and analyzed for fluorescence at both wavelengths using the Odyssey Infrared Imaging System (LI-COR Biosciences). Phosphorylated P90RSK(Ser380) signal was normalized to GAPDH signal.

Q: With `O=c1cc(-c2ccnc(NC3CCOCC3)n2)ccn1[C@H](CO)c1ccc(Cl)c(F)c1` [Example 1, (S)-1-(1-(4-chloro-3-fluorophenyl)-2-hydroxyethyl)-4-(2-((tetrahydro-2H-pyran-4-yl)amino)pyrimidin-4-yl)pyridin-2(1H)-one] as the compound, how does the IC50 read?
A: 31.9 nM

Q: With `O=c1cc(-c2ccnc(N[C@H]3CCOC[C@H]3F)n2)ccn1[C@H](CO)c1ccc(Cl)c(F)c1` [Example 2, 1-((S)-1-(4-chloro-3-fluorophenyl)-2-hydroxyethyl)-4-(2(((3S,4S)-3-fluorotetrahydro-2H-pyran-4-yl)amino)pyrimidin-4-yl)pyridin-2(1H)-one] as the compound, how does the IC50 read?
A: 59.1 nM

Q: Which IC50 does the source give for `O=c1cc(-c2ccnc(N[C@@H]3CCOC[C@H]3F)n2)ccn1[C@H](CO)c1ccc(Cl)c(F)c1` [Example 3, 1-((S)-1-(4-chloro-3-fluorophenyl)-2-hydroxyethyl)-4-(2-(((3S,4R)-3-fluorotetrahydro-2H-pyran-4-yl)amino)pyrimidin-4-yl)pyridin-2(1H)-one] here?
A: 40.3 nM

Q: With `O=c1cc(-c2ccnc(N[C@H]3CCOC[C@H]3F)n2)ccn1[C@H](CO)c1ccc(Cl)c(Cl)c1` [Example 4, 1-((S)-1-(3,4-dichlorophenyl)-2-hydroxyethyl)-4-(2-(((3S,4S)-3-fluorotetrahydro-2H-pyran-4-yl)amino)pyrimidin-4-yl)pyridin-2(1H)-one] as the compound, how does the IC50 read?
A: 8.5 nM

Q: `Cn1nccc1Nc1nccc(-c2ccn([C@H](CO)c3ccc(Cl)c(F)c3)c(=O)c2)n1` [Example 39, (S)-1-(1-(4-chloro-3-fluorophenyl)-2-hydroxyethyl)-4-(2-((1-methyl-1H-pyrazol-5-yl)amino)pyrimidin-4-yl)pyridin-2(1H)-one] was tested. Which IC50 did it give?
A: 15.5 nM

Q: `O=c1cc(-c2ccnc(N[C@@H]3C[C@@H]4C[C@H]3CO4)n2)ccn1[C@H](CO)c1ccc(Cl)c(F)c1` [Example 42, 4-(2-((1S,4R,5R)-2-oxabicyclo[2.2.1]heptan-5-ylamino)pyrimidin-4-yl)-1-((S)-1-(4-chloro-3-fluorophenyl)-2-hydroxyethyl)pyridin-2(1H)-one] was tested. Which IC50 did it give?
A: 74 nM

Q: `COc1ccc([C@@H]([C@H]2CCCN2)n2ccc(-c3ccnc(NC4CCOCC4)n3)cc2=O)cc1F` [Example 50, 1-((S)-(3-fluoro-4-methoxyphenyl)((R)-pyrrolidin-2-yl)methyl)-4-(2-((tetrahydro-2H-pyran-4-yl)amino)pyrimidin-4-yl)pyridin-2(1H)-one] was tested. Which IC50 did it give?
A: 292 nM

Q: With `O=c1cc(-c2ccnc(NC3CCOCC3)n2)ccn1[C@H](CO)c1cccc(Cl)c1` [Example 57, (S)-1-(1-(3-chlorophenyl)-2-hydroxyethyl)-4-(2-((tetrahydro-2H-pyran-4-yl)amino)pyrimidin-4-yl)pyridin-2(1H)-one] as the compound, how does the IC50 read?
A: 1770 nM

Q: Which IC50 does the source give for `C[C@@H](CO)Nc1nccc(-c2ccn(C(CO)c3cccc(Cl)c3)c(=O)c2)n1` (stereo partly drawn) [Example 58, 1-(1-(3-chlorophenyl)-2-hydroxyethyl)-4-(2-(((S)-1-hydroxypropan-2-yl)amino)pyrimidin-4-yl)pyridin-2(1H)-one] here?
A: 708 nM

Q: Which IC50 does the source give for `C[C@@H](CO)Nc1nccc(-c2ccn(C(CO)c3ccc(F)c(Cl)c3)c(=O)c2)n1` (stereo partly drawn) [Example 60, 1-(1-(3-chloro-4-fluorophenyl)-2-hydroxyethyl)-4-(2-(((S)-1-hydroxypropan-2-yl)amino)pyrimidin-4-yl)pyridin-2(1H)-one] here?
A: 1610 nM

Q: Which IC50 does the source give for `O=c1cc(-c2ccnc(NC3CCOCC3)n2)ccn1C(c1ccc(Cl)c(F)c1)[C@@H]1CCCN1` (stereo partly drawn) [Example 102, 1-((4-chloro-3-fluorophenyl)((S)-pyrrolidin-2-yl)methyl)-4-(2-((tetrahydro-2H-pyran-4-yl)amino)pyrimidin-4-yl)pyridin-2(1H)-one] here?
A: > 5000 nM

Q: For `CC[C@@H](CO)Nc1nccc(-c2ccn(C(C)c3ccc(Cl)c(F)c3)c(=O)c2)n1` (stereo partly drawn) [Example 134, 1-(1-(4-chloro-3-fluorophenyl)ethyl)-4-(2-(((S)-1-hydroxybutan-2-yl)amino)pyrimidin-4-yl)pyridin-2(1H)-one], which IC50 is on record?
A: 544 nM

Q: `CCc1nccc(Nc2nccc(-c3ccn(C(CO)c4ccc(Cl)c(F)c4)c(=O)c3)n2)n1` (centres unmarked) [Example 139, 1-(1-(4-chloro-3-fluorophenyl)-2-hydroxyethyl)-4-(2-((2-ethylpyrimidin-4-yl)amino)pyrimidin-4-yl)pyridin-2(1H)-one] was tested. Which IC50 did it give?
A: 372 nM

Q: Which IC50 does the source give for `O=c1cc(-c2ccnc(NC3CCOCC3)n2)ccn1CCc1ccc(OC(F)(F)F)cc1` [Example 157, 4-(2-((tetrahydro-2H-pyran-4-yl)amino)pyrimidin-4-yl)-1-(4-(trifluoromethoxy)phenethyl)pyridin-2(1H)-one] here?
A: 46.3 nM

Q: For `Cc1nn(C)cc1Nc1nccc(-c2ccn(C(CO)c3ccc(Cl)c(F)c3)c(=O)c2)n1` (centres unmarked) [Example 166, 1-(1-(4-chloro-3-fluorophenyl)-2-hydroxyethyl)-4-(2-((1,3-dimethyl-1H-pyrazol-4-yl)amino)pyrimidin-4-yl)pyridin-2(1H)-one], which IC50 is on record?
A: 12.9 nM

Q: `Cc1cc(Nc2nccc(-c3ccn([C@H](CO)c4ccc(Cl)c(F)c4)c(=O)c3)n2)n(C)n1` [Example 167, (S)-1-(1-(4-chloro-3-fluorophenyl)-2-hydroxyethyl)-4-(2-((1,3-dimethyl-1H-pyrazol-5-yl)amino)pyrimidin-4-yl)pyridin-2(1H)-one] was tested. Which IC50 did it give?
A: 100 nM

Q: How did the IC50 turn out when `C=C(c1ccc(Cl)c(F)c1)n1ccc(-c2ccnc(Nc3ccnc(C)c3)n2)cc1=O` [Example 172, 1-(1-(4-chloro-3-fluorophenyl)vinyl)-4-(2-((2-methylpyridin-4-yl)amino)pyrimidin-4-yl)pyridin-2(1H)-one] was run?
A: 12.9 nM

Q: `CCn1cc(Nc2nccc(-c3ccn([C@H](CO)c4ccc(Cl)c(F)c4)c(=O)c3)n2)c(C)n1` [Example 173, (S)-1-(1-(4-chloro-3-fluorophenyl)-2-hydroxyethyl)-4-(2-((1-ethyl-3-methyl-1H-pyrazol-4-yl)amino)pyrimidin-4-yl)pyridin-2(1H)-one] was tested. Which IC50 did it give?
A: 110 nM

Q: How did the IC50 turn out when `Cc1nc[nH]c1Nc1nccc(-c2ccn([C@H](CO)c3ccc(Cl)c(F)c3)c(=O)c2)n1` [Example 185, (S)-1-(1-(4-chloro-3-fluorophenyl)-2-hydroxyethyl)-4-(2-((4-methyl-1H-imidazol-5-yl)amino)pyrimidin-4-yl)pyridin-2(1H)-one] was run?
A: 19.6 nM

Q: `Cn1cc(C(c2ccc(Cl)c(Cl)c2)n2ccc(-c3nc(NC4CCOCC4)ncc3F)cc2=O)cn1` (centres unmarked) [Example 209, 1-((3,4-dichlorophenyl)(1-methyl-1H-pyrazol-4-yl)methyl)-4-(5-fluoro-2-((tetrahydro-2H-pyran-4-yl)amino)pyrimidin-4-yl)pyridin-2(1H)-one] was tested. Which IC50 did it give?
A: 6.7 nM

Q: With `O=c1cc(-c2ccnc(NC3CCOCC3)n2)ccn1Cc1cc2ccc(Cl)cc2[nH]1` [Example 250, 1-((6-chloro-1H-indol-2-yl)methyl)-4-(2-((tetrahydro-2H-pyran-4-yl)amino)pyrimidin-4-yl)pyridin-2(1H)-one] as the compound, how does the IC50 read?
A: 15.2 nM

Q: `O=c1cc(-c2ccnc(NC3CCOCC3)n2)ccn1Cc1cc2c(F)cccc2[nH]1` [Example 266, 1-((4-fluoro-1H-indol-2-yl)methyl)-4-(2-((tetrahydro-2H-pyran-4-yl)amino)pyrimidin-4-yl)pyridin-2(1H)-one] was tested. Which IC50 did it give?
A: 8.6 nM

Q: How did the IC50 turn out when `O=c1cc(-c2ccnc(NC3CCOCC3)n2)ccn1Cc1cc(F)c2cc[nH]c2c1` [Example 289, 1-((4-fluoro-1H-indol-6-yl)methyl)-4-(2-((tetrahydro-2H-pyran-4-yl)amino)pyrimidin-4-yl)pyridin-2(1H)-one] was run?
A: 20.4 nM
